Data on one molecule can be found in patent publication US8865448B2, “Aspergillus containing beta-glucosidase, beta-glucosidases and nucleic acids encoding the same” (Cleanvantage LLC, priority 2010, dated 2014).

Experiment [1] relates to A. carbonarius KLU-93 beta-glucosidase. Conditions: cited from earlier work.
The subject of experiment [2] is Novozym 188 beta-glucosidase (Aspergillus niger), commercial preparation. Briefly: Michaelis-Menten kinetics with cellobiose, Novozym 188. The format is biochemical. Conditions: cellobiose as substrate, 50° C. On the procedure: (§1) In this work specific activity (U/mg) is defined as units per amount of total protein. […] The assay using 5 mM pNPG in NaCltrate buffer pH 4.8 was performed as previously described; enzyme samples were assayed at different concentrations in triple determination to ensure substrate saturation in the assay. […] The glucose concentration was measured at Dionex ICS3000 using gradient elution: 0-20% eluent B (0.5M NaAcetate in 100 mM NaOH) in 13 min followed by 2 min washing with 50% eluent B and 5 min re-equilibrating with 100% eluent A (100 mM NaOH). Samples were assayed at different concentrations in triple determination to ensure substrate saturation in the assay.
(§2) Triple determinations were performed. A substrate saturation curve was prepared by plotting substrate concentration [S] vs reaction rate, v. The Michealis Menten constants Km and Vmax were determined from Hanes-Wolf plots where substrate concentration [S] is plotted against substrate concentration over reaction rate [S]/v, and the linear relationship of the data gives a slope of 1/Vmax, a y-intercept of Km/Vmax, and an x-intercept of −Km.
(§3) Enzyme kinetics are preferably carried out on pure enzyme preparations, but are in this study used for the comparison of the beta-glucosidases of the crude enzyme extract of strain AP/Aspergillus saccharolyticus and the commercial enzyme preparation Novozym 188 and Cellic CTec. […]

In experiment [3] the test system is A. phoenicis QM329 beta-glucosidase. Conditions: cited from earlier work.
Experiment [4] concerns A. niger CCRC31494 beta-glucosidase. Conditions: hydrolysis of cellobiose, 40° C., pH 4.0; cited from earlier work.
The test system of experiment [5] is Aspergillus saccharolyticus (strain AP, CBS 127449) beta-glucosidases, crude enzyme extract. Briefly: Michaelis-Menten kinetics with cellobiose, crude solid state fermentation extract of strain AP. The class given is biochemical. The settings on record: cellobiose as substrate, 50° C. The procedure:
The fungal strain AP/Aspergillus saccharolyticus was grown on potato dextrose agar (Sigma) for sporulation. Spores were harvested after 7 days of growth by adding sterile water to the plate and scrape on the surface of the culture. The heavy spore suspension was filtered through Myra cloth. Two ml of the spore solution was inoculated into 200 ml seed medium (2.0 g/l wheat bran, 5 g/l corn steep powder, 0.25 g/l yeast extract, 0.75 g/l peptone, 1.4 g/l (NH4)2SO4, 2.0 g/l KH2PO4, 0.4 g/l CaCl2 2H2O, 0.3 g/l MgSO4H2O, 5.0 mg/l FeSO4, 1.6 mg/l MnSO4 7H2O, 1.4 mg/l ZnSO4 7H2O, 2.0 CoCl2 6H2O) in an 500 ml Erlenmeyer flask, and incubated at 30° C. for 2 days, shaking at 160 rpm. […] The samples were incubated at 30° C. without shaking. After 7 days incubation, liquid was extracted from the medium by pressing the medium by hand using gloves. The extract was centrifuged at 10000 g, and the supernatant filtered through Whatman filter paper. In this work specific activity (U/mg) is defined as units per amount of total protein. […] Samples were assayed at different concentrations in triple determination to ensure substrate saturation in the assay. […] Triple determinations were performed. A substrate saturation curve was prepared by plotting substrate concentration [S] vs reaction rate, v. […]

Experiment [6] concerns A. niger BKMF-1305 beta-glucosidase. The settings on record: cited from earlier work.
In experiment [7] the test system is A. niger NIAB280 beta-glucosidase. The settings on record: hydrolysis of cellobiose, 50° C., pH 5.0; cited from earlier work.
Experiment [8] relates to Cellic CTec beta-glucosidases, commercial preparation. In words: Michaelis-Menten kinetics with cellobiose, Cellic CTec. The class given is biochemical. The settings on record: cellobiose as substrate, 50° C. The procedure: as §1, §2, §3
Experiment [9] has as its system A. japonicus beta-glucosidase. Conditions: cellobiose; cited from earlier work.
The target of experiment [10] is T1, Aspergillus saccharolyticus CBS 127449 beta-glucosidase BGL1, his-tagged, expressed in T. reesei, SEQ ID NO: 3 (without signal peptide SEQ ID NO: 4) (Aspergillus saccharolyticus, UniProt G0X2F9).
T1 construct: mature form lacks signal peptide 1-19
T1 sequence (G0X2F9 20-860): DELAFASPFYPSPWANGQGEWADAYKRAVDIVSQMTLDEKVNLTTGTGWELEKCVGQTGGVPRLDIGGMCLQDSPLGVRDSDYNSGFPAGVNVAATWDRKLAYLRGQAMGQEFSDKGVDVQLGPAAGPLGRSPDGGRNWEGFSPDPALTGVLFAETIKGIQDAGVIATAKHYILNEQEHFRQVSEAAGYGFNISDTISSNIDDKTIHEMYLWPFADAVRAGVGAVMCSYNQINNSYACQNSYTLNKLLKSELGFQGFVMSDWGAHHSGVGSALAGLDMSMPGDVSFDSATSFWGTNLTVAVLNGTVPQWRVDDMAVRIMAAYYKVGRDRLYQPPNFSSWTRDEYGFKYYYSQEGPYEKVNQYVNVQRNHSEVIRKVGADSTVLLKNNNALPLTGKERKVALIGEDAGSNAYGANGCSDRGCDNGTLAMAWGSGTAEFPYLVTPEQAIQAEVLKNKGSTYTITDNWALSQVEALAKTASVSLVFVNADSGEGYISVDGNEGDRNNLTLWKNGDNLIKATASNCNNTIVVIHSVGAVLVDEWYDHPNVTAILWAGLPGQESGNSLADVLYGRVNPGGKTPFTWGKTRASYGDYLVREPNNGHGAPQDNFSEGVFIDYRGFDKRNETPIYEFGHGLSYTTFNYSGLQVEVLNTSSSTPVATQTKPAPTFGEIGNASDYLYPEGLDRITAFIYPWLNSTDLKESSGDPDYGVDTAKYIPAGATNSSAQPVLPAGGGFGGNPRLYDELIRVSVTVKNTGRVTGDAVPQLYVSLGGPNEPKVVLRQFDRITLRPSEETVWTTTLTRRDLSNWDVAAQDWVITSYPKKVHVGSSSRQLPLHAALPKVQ
Briefly: Michaelis-Menten kinetics with cellobiose, purified BGL1. The format is biochemical. The settings on record: cellobiose as substrate, 50° C., pH 4.8, Hanes plot.
Protocol: In this work specific activity (U/mg) is defined as units per amount of total protein. […] The assay using 5 mM pNPG in NaCltrate buffer pH 4.8 was performed as previously described; enzyme samples were assayed at different concentrations in triple determination to ensure substrate saturation in the assay. […] Samples were assayed at different concentrations in triple determination to ensure substrate saturation in the assay.

The subject of experiment [11] is A. niger beta-glucosidases. The settings on record: cellobiose; general literature search; cited from earlier work.
Where [12] appears, read: cellobiose, jointly for A. phoenicis, A. niger, A. carbonarius (Jager et al., 2001).
The mark [13] stands for this setting: hydrolysis of cellobiose, 50° C., pH 4.0.

Consider `OC[C@H]1O[C@@H](O[C@H]2[C@H](O)[C@@H](O)C(O)O[C@@H]2CO)[C@H](O)[C@@H](O)[C@@H]1O` (some centres unmarked) [cellobiose], for which the Km was 2 to 3 mM in experiment [1] (setting [12]); 1.06 mM in experiment [2] (pH 4.8, Hanes-Wolf plot); 2 to 3 mM in experiment [3] (setting [12]); 1.09 mM in [5] (pH 4.8, Hanes-Wolf plot); 2 to 3 mM in experiment [6] (setting [12]); 1.69 mM in experiment [8] (pH 4.8, Hanes-Wolf plot). Further, the Km is 1 mM in [9] and 1.5 to 5.6 mM in experiment [11]. For the same molecule, the Vmax is listed as 15.4 U/mg in [1] (setting [13]); 7.5 U/mg in experiment [2] (pH 4.8, per total protein); 27.3 U/mg in experiment [3] (setting [13]); 5.27 U/mg in [4]; 11.3 U/mg in experiment [5] (pH 4.8, per total protein); 38.8 U/mg in experiment [6] (setting [13]). In addition, the Vmax in experiment [7] is 36.5 U/mg; in experiment [8] (pH 4.8, per total protein), 22.9 U/mg; in [10], 45 U/mg.
